The values that follow come from patent US8987195B2 (priority 2012, dated 2015).

By EC50 is commonly meant the concentration giving half of the maximal effect. In general, IC50 refers to the concentration that gives 50% inhibition.

One test relates to HCV genotype 1b replicon. The test can be described thus: HCV replicon assay, genotype 1b replicon EC50. Format: cell-based, Hepatitis C virus. To be noted: Hepatitis C virus, genotype 1b replicon, read-out: EC50 [gt-1b]. The essentials:
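Cells harbouring a stable replicon are grown under G418 selection, then plated with test compound in G418-free medium for 24-48 hours. After washing and lysis, RNA or luciferase signal is measured and expressed as percent of DMSO control to give EC50.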
On the technique in general: Replicon systems follow genome replication, usually without infectious particles.

The target in test [1] is HCV NS3/4A protease genotype 1b (Hepatitis C virus genotype 1b, UniProt P26663). Description: HCV NS3/4A protease time-resolved fluorescence (TRF) assay, Ki against genotype 1b. Format: biochemical. To be noted: IC50 [gt-1b] (nM), NS3/4A genotype 1b, enzyme 0.2 nM. The essentials:
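NS3/4A enzyme was preincubated 30 min with inhibitor in 50 mM HEPES pH 7.5, 150 mM NaCl, 15% glycerol, 0.15% Triton X-100, 10 mM DTT, 0.1% PEG 8000; 25 nM europium TRF peptide substrate added, 2.5 h at room temperature. Enzyme: 0.2 nM (1b), 0.4 nM (A156T), 0.025 nM (3a). Ki from IC50 via Cheng-Prusoff.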

Read-outs that look alike come from different tables or passages of the source.

As for `COc1ccc2nc(C(C)C)c3c(c2c1)CC[C@]1(C[C@H]2C(=O)N[C@]4(C(=O)NS(=O)(=O)C5(C)CC5)C[C@H]4/C=C\CCCCC[C@H](NC(=O)OC(C)(C)C(F)(F)F)C(=O)N2C1)O3` [Example 295, 1,1,1-trifluoro-2-methylpropan-2-yl [(2R,6S,12Z,13aS,14aR,16aS)-9′-methoxy-14a-{[(1-methylcyclopropyl)sulfonyl]carbamoyl}-5,16-dioxo-5′-(propan-2-yl)-1,1′,2′,5,6,7,8,9,10,11,13a,14,14a,15,16,16a-hexadecahydrospiro[cyclopropa[e]pyrrolo[1,2-a][1,4]diazacyclopentadecine-2,3′-pyrano[2,3-c]quinolin]-6-yl]carbamate], the EC50 in the test with HCV genotype 1b replicon worked out at 2.36 nM. This molecule registered an IC50 in test [1] of 0.024 nM.

`Cc1nc2ccc(OCC(F)(F)F)cc2c2c1O[C@]1(CC2)C[C@H]2C(=O)N[C@]3(C(=O)NS(=O)(=O)C4(C)CC4)C[C@H]3/C=C\CCCCC[C@H](NC(=O)OC(C)(C)C)C(=O)N2C1` [Example 296, tert-butyl [(2R,6S,12Z,13aS,14aR,16aS)-5′-methyl-14a-{[(1-methylcyclopropyl)sulfonyl]carbamoyl}-5,16-dioxo-9′-(2,2,2-trifluoroethoxy)-1,1′,2′,5,6,7,8,9,10,11,13a,14,14a,15,16,16a-hexadecahydrospiro[cyclopropa[e]pyrrolo[1,2-a][1,4]diazacyclopentadecine-2,3′-pyrano[2,3-c]quinolin]-6-yl]carbamate]: in the test on HCV genotype 1b replicon, the concentration for a half-maximal effect (EC50) turned out to be 2.55 nM. Further, the IC50 in test [1] came out at 0.009 nM.

For the molecule `Cc1nc2ccc(OC(F)(F)F)cc2c2c1O[C@]1(CC2)C[C@H]2C(=O)N[C@]3(C(=O)NS(=O)(=O)C4(C)CC4)C[C@H]3/C=C\CCCCC[C@H](NC(=O)OCC(C)(C)C)C(=O)N2C1` [Example 297, 2,2-dimethylpropyl [(2R,6S,12Z,13aS,14aR,16aS)-5′-methyl-14a-{[(1-methylcyclopropyl)sulfonyl]carbamoyl}-5,16-dioxo-9′-(trifluoromethoxy)-1,1′,2′,5,6,7,8,9,10,11,13a,14,14a,15,16,16a-hexadecahydrospiro[cyclopropa[e]pyrrolo[1,2-a][1,4]diazacyclopentadecine-2,3′-pyrano[2,3-c]quinolin]-6-yl]carbamate], in the test with HCV genotype 1b replicon, the half-maximal effective concentration (EC50) was 6.06 nM. The molecule further returned an IC50 in test [1] of 0.009 nM.

For the molecule `Cc1nc2ccc(OC(F)(F)F)cc2c2c1O[C@]1(CC2)C[C@H]2C(=O)N[C@]3(C(=O)NS(=O)(=O)C4(C)CC4)C[C@H]3/C=C\CCCCC[C@H](NC(=O)OC(C)(C)C(F)(F)F)C(=O)N2C1` [Example 298, 1,1,1-trifluoro-2-methylpropan-2-yl [(2R,6S,12Z,13aS,14aR,16aS)-5′-methyl-14a-{[(1-methylcyclopropyl)sulfonyl]carbamoyl}-5,16-dioxo-9′-(trifluoromethoxy)-1,1′,2′,5,6,7,8,9,10,11,13a,14,14a,15,16,16a-hexadecahydrospiro[cyclopropa[e]pyrrolo[1,2-a][1,4]diazacyclopentadecine-2,3′-pyrano[2,3-c]quinolin]-6-yl]carbamate], the concentration giving a half-maximal response (EC50) in the test with HCV genotype 1b replicon stood at 6.31 nM. The IC50 in test [1] came to 0.017 nM.

As to `COc1ccc2nc(C(C)C)c3c(c2c1)C(F)(F)C[C@]1(C[C@H]2C(=O)N[C@]4(C(=O)NS(=O)(=O)C5(C)CC5)C[C@H]4/C=C\CCCCC[C@H](NC(=O)OC(C)(C)C(F)(F)F)C(=O)N2C1)O3` [Example 299, 1,1,1-trifluoro-2-methylpropan-2-yl [(2S,6S,12Z,13aS,14aR,16aS)-1′,1′-difluoro-9′-methoxy-14a-{[(1-methylcyclopropyl)sulfonyl]carbamoyl}-5,16-dioxo-5′-(propan-2-yl)-1,1′,2′,5,6,7,8,9,10,11,13a,14,14a,15,16,16a-hexadecahydrospiro[cyclopropa[e]pyrrolo[1,2-a][1,4]diazacyclopentadecine-2,3′-pyrano[2,3-c]quinolin]-6-yl]carbamate], the EC50 with HCV genotype 1b replicon (K+ salt) was 6.37 nM. For the same molecule, the 50% inhibitory concentration (IC50) in test [1] (K+ salt) is 0.02 nM.
